Molecules are shown by their SMILES.

In assay [1] the test system is LNCaP cells. In words: Docetaxel inhibition of LNCaP cell growth at different folate concentrations (cell count). The format is cell-based, human. Particulars: 10 or 20 μg/ml docetaxel for 72 hours, cells counted after 1 week; FIG. 12. As for the experimental part: Docetaxel (taxotere) at concentrations of 10 or 20 μg/ml was incubated with LNCaP cells for 72 hours and at different concentrations of folate supplied in the form of folic acid from culture medium. Cells were counted after 1 week. […] The open bar is the control without treatment with docetaxel, the speckled bars are cells treated with 10 ug/ml docetaxel together with the indicated concentration of folate, and the striped bars are cells treated with 20 ug/ml docetaxel together with the indicated concentration of folate. The indicated concentrations of folate are over and above the physiological level of folate provided by the folate present in fetal calf serum (for example, 12 nm folate represents 12 nm folate above the physiological concentration). […] It is likely that decreased folate availability to cancer cells would enhance the anti-tumor effect of other cytotoxic, cytostatic and hormonal.

A further assay concerns prostate cancer. The conditions noted are these: patients after developing androgen-independence; taxane-based chemotherapy; cited from earlier work.
The subject of assay [2] is LNCaP cells. In words: Effect of folic acid concentration on cell growth rate. The conditions noted are these: folate level increased above physiological; FIG. 3. The format is cell-based, human. The text has this:
Increasing the folate level above physiological can increase the growth rate by almost 2-fold. In cell lines that express PSMA (such as LNCaP), the same growth increase is also found if folate is provided in the form of ‘natural’ or dietary folate (e.g., polyglutamated folate) which is digested to monoglutamated folate by PSMA. The latter (monoglutamated folate) can cross the cell membrane whereas polyglutamated folate cannot. Anti-PSMA Antibody, J415, Inhibits PSMA tic Activity.

Assay [3] relates to PSMA expression, SK-RC-42. In words: PSMA expression (J591 labeling, FACS) after three weeks in lowered-folate media. The format is cell-based, human. Particulars: folate lowered to 10-50 nM, vs standard media, FIG. 6. As for the experimental part:
(§1) According to the World Health Organization, physiological level of serum folate is 12 nmol/L. Standard tissue culture media contains approx 150× the concentration of folate found in human serum/plasma. […] FIGS. 5-11 show the PSMA expression levels of different cell lines were grown for three weeks in standard media (containing 150× physiological concentration of folate; lines 2), standard media with only 50 nM folate, or standard media with only 10 nM folate. The cells were labeled with anti-PSMA antibody J591 followed by a fluorescently labeled secondary antibody that recognizes J591. Lines 1 show the cells labeled with a negative isotype control antibody followed by the labeled secondary antibody.

Assay [4] deals with PSMA expression, Cwr22rv1. The assay is described as above. The assay is classed as cell-based, human. Particulars: folate lowered to 10 nM, vs standard media, FIG. 9. As for the experimental part:
as §1

Assay [5] relates to PSMA expression, SK-RC-31. Described as above. The assay is classed as cell-based, human. Particulars: folate lowered to 10 nM, vs standard media, FIG. 5. As for the experimental part: as §1
In assay [6] the test system is PSMA expression, SK-RC-06. The description is as above. Particulars: folate lowered to 50 nM or less, vs standard media, FIG. 8. The assay is classed as cell-based, human. As for the experimental part: as §1
In a further assay the test system is PSMA expression, PC3. The description is as above. The format is cell-based, human. The conditions noted are these: folate lowered to 50 nM or less, vs standard media, FIG. 10. As for the experimental part:
as §1

In a further assay the test system is PSMA expression, LNCaP. Described as above. The assay is classed as cell-based, human. Particulars: folate lowered in the media, FIG. 11. As for the experimental part:
as §1

Assay [7] relates to PSMA expression, SK-RC-39. Described as above. The format is cell-based, human. The conditions noted are these: folate lowered to 10 nM, vs standard media, FIG. 7. As for the experimental part: as §1

As to `CC(=O)O[C@@]12CO[C@@H]1C[C@H](O)[C@@]1(C)C(=O)[C@H](O)C3=C(C)[C@@H](OC(=O)[C@H](O)[C@@H](NC(=O)OC(C)(C)C)c4ccccc4)C[C@@](O)([C@@H](OC(=O)c4ccccc4)[C@H]21)C3(C)C` [docetaxel], the “Cell killing/inhibition of growth depending on folate level (in words)” value with LNCaP cells [1] was “decreasing folate levels increases the cell killing/inhibition of growth”. The Median survival in the assay on prostate cancer is given as 19 months.
For `Nc1nc2ncc(CNc3ccc(C(=O)N[C@@H](CCC(=O)O)C(=O)O)cc3)nc2c(=O)[nH]1` [folate, folic acid], the “Increase of growth rate” value in the assay on LNCaP cells [2] was approximately 2 fold. Moreover, the “Increase in PSMA expression” value in [3] is 650%; in assay [4], 950%; in [5], 250%; in assay [6], 225%; in the assay on PSMA expression, PC3 it was 400%; in assay [7], 250%. The “Upregulation of PSMA expression (in words)” value with PSMA expression, LNCaP was “did not cause upregulation of PSMA expression”.

Values taken from US20250058000A1, “Treatment of Proliferative Disorders Using Antibodies to PSMA” (Cornell University, priority 2007, published 2025).
